Test results: ChEMBL document CHEMBL3992484, “Synthetic α-Hydroxytropolones as Inhibitors of HIV Reverse Transcriptase Ribonuclease H Activity” (Medchemcomm, 2016)

Columns and labels:
[1] = system: Human immunodeficiency virus 1; assay: Stabilization of HIV-1 RT-RNase H assessed as change in melting temperature at 20 uM by sypro-orange dye-based differential scanning fluorimetric analysis
[2] = Inhibition of HIV-1 RT-RNase H using 18-nucleotide 3'-fluorescein-labeled RNA annealed to a complementary 18-nucleotide 5'-dabsyl-labeled DNA as substrate measured after 10 mins by FRET assay; set-up: species or system Human immunodeficiency virus 1
[3] = Cytotoxicity against human CEM-SS cells after 7 days by XTT assay; assay type: cell-based
[4] = system: Human immunodeficiency virus 1; assay: Antiviral activity against HIV1 RF infected in human CEM-SS cells assessed as protection against viral-induced cytopathic effect after 7 days by XTT assay; assay type: functional, cell-based; details: Human immunodeficiency virus 1, RF, 168 h

Compound	ΔTm [1] [°C]	IC50 [2] [µM]	CC50 at 168 h [3] [µM]	EC50 [4] [µM]
COC(=O)c1c(C)cc(O)c(=O)c(O)c1Br	2.48	0.13	7.6	2.2
CCOC(=O)c1cc(O)c(=O)c(O)cc1C	2.4	0.25	–	5
COC(=O)c1cc(O)c(=O)c(O)cc1C	2.7	0.16	–	7.5
CC(C)c1ccc(O)c(=O)c(O)c1	2.3	–	–	–
CC(=O)c1cc(O)c(=O)c(O)cc1C	2.9	0.29	20	6.9
